The values that follow come from patent publication US20250205204A1, “Transcription Factor Brn2 Inhibitory Compounds for Use as Therapeutics” (The University of British Columbia, priority 2021, published 2025).

The test system of data set [1] is 42D^ENZR cells. The data set is described as follows: Cell proliferation, BRN2 expressing 42D cells (crystal violet). The class given is cell-based. Conditions: about 72 hours; for Growth Specificity: 42D (express BRN2) versus 16D (no BRN2) cells, result in words; for IC50: 42D cells, proliferation, read-out: 42D IC50. The method, then: Step 3: Cell Proliferation
Plate 42DE^NZR (˜7000 cells per well) and 16D^CRPC (˜5000 cells per well) cells in 96 well plate with a volume of 100 μL per well. • 2. Next day 1 mL aliquots of media are combined with 3× the desired concentration of compounds. The aliquots are vortexed and 50 μL of each 3× concentration is added to the 100 μL of media in each well to give the ix desired concentration.
The following are the desired concentrations:
Approximately 72 hours later, 17 μL of 10% Glutaraldehyde is added to each well and plates are placed on a shaker for 20-30 minutes. • 4. Media is washed off the fixed cells by slow submersion in a container of water. Then the water is removed by tapping the plate upside down. • 5. 75 μL of Crystal Violet™ solution is added into the 96 well plates and placed on a shaker for ˜30 minutes. • 6. Media is washed off the fixed cells by repeated slow submersion in a container of water and the plates are allowed to dry over-night. • 7. Next day, 75 μL of Sorensen Solution is accurately pipetted into each well. The plates placed on a shaker for ˜30 minutes. • 8. Absorbance is measured in the plate at 590 nm.
There is a distinction in TABLES 1 and 2 difference between “Active” and “Specific” or “Specificity”.

Data set [2] has as its target T1, BRN2 (Homo sapiens, UniProt P20265).
T1 sequence (P20265 1-443): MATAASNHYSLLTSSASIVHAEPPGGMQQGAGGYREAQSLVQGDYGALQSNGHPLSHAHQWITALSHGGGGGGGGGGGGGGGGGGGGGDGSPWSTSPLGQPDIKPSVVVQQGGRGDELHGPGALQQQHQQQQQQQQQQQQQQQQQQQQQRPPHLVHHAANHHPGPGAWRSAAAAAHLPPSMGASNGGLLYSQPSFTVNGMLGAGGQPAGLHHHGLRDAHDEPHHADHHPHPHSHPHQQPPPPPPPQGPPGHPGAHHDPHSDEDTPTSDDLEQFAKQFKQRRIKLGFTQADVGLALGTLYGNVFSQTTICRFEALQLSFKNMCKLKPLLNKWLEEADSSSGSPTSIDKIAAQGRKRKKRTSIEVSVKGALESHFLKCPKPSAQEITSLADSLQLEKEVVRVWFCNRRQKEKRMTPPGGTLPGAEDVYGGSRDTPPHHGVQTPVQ
Briefly: BLI binding. The note with it: result in words. For orientation: In BLI a coated tip is dipped into the sample, and binding shifts an interference pattern.

Data set [3] can be described thus: Metabolic stability in liver microsomes (MLM). The class given is in vitro ADME, mice. The note with it: 0.25 mg/mL protein; for half-life at 1 μM: mouse, liver microsomes, pH 7.4, 1 μM compound, read-out: T1/2 in mins (MLM); for Met Stab % (60 mins) MLM: percent remaining at 60 min, 1 μM compound, 1 mM NADPH. The method, then: Preparation of Potassium Phosphate Buffer, 50 mM (pH 7.4)
Potassium phosphate buffer (Kphos) was prepared by adding 0.647 g potassium phosphate monobasic (KH2PO4) and 3.527 g potassium phosphate dibasic (KH2PO4) to 400 mL of Milli-Q™ water. pH of the buffer was adjusted to 7.4 and volume was made up to 500 mL.
Preparation of Microsomes
Stock solutions of BRN2 inhibitors were prepared in DMSO at a concentration of 1 mM
Preparation of NADPH Solution
• Total Incubation volume: 100 μL • Compound concentration: 1 μM • Protein Concentration: 0.25 mg/mL • NADPH: 1 mM • Final DMSO contain: 0.1% • Number of replicates: 2 • Time points: 0, 5, 15, 30 and 60 min
From the above mix, 70 μL was added to individual wells of 96 well reaction plates and pre-incubated in a 37° C. water bath for 5 min. […] Reactions without NADPH and buffer controls (minus NADPH) at 0 min and 60 min were also incubated to rule out non-NADPH metabolism or chemical instability in the incubation buffer. All reactions were terminated using 100 μL of ice-cold acetonitrile containing internal standard at 0, 5, 15, 30 and 60 min.
Samples were monitored for parent compounds disappearance in MRM mode using LC-MS/MS.
The percent remaining of test compounds and positive control in each sample was determined by considering peak area ratio in the 0 minute sample as 100%. The Half-life of compounds in microsomes is calculated by formula: […]
In vitro intrinsic clearance (CL'int) (units in mL/min/kg) was calculated using the formula.
[formula] • For liver microsomes, scaling factor used was 45 mg microsomal protein per gm liver. • * Indicates liver weight (gm) which varies species wise. For mice the liver weights are 90 gm.
In general terms: Microsomes from liver hold many membrane-bound enzymes, among them those of drug oxidation.

Each structure is given as a SMILES string. A value given as a limit tells only on which side of the number the result lay.

The term IC50 denotes the concentration that inhibits the measured activity by half.

As for `O=C1/C(=N\Nc2nc3ccccc3s2)Cc2cc(F)c(Cl)cc21` [7-100], in data set [1], the “Growth Specificity” value is given as “Specific to 42D” and the IC50 was around 2000 nM. In data set [2], the BLI binding result is “Positive binding”. In data set [3], the half-life at 1 μM came out at 38 min and the “Met Stab % (60 mins) MLM” value is 30%.
For the molecule `O=C1/C(=N\Nc2nc3ccccc3s2)Cc2c1ccc(F)c2F` [7-101], in data set [1], the “Growth Specificity” value was “Specific to 42D cells” and the IC50 was 1000 to 2500 nM. In addition, the BLI binding entry in data set [2] is “Positive binding”. Also, in data set [3], the half-life at 1 μM was above 60 min and the “Met Stab % (60 mins) MLM” value came to 67%.
The like results for `O=C1/C(=N\Nc2nc3ccccc3s2)Cc2cc(F)cc(F)c21` [7-102] were, in that order, “Specific to 42D cells”, around 2500 nM, “Positive binding but not strong”, 56 min and 46%.
As to `O=C1/C(=N\Nc2nc3ccccc3s2)Cc2cc(N3CCOCC3)ccc21` [7-103], in data set [1], the “Growth Specificity” value is recorded as “Not specific”. Also, the BLI binding result in data set [2] was “No binding”. Also, in data set [3], the half-life at 1 μM was 44 min and the “Met Stab % (60 mins) MLM” value is on record as 42%.
On to `CCc1ccc2c(c1)C/C(=N/Nc1nc3ccccc3s1)C2=O` [7-104], for which the “Growth Specificity” value in data set [1] is given as “Not specific”. In data set [2], the BLI binding result is “No binding”. In data set [3], the half-life at 1 μM was found to be 25 min and the “Met Stab % (60 mins) MLM” value stood at 17%.
`O=C1/C(=N\Nc2nc3ccccc3s2)Cc2cc(C3CC3)ccc21` [7-105]: the “Growth Specificity” value in data set [1] is listed as “Not specific”. For the same molecule, the BLI binding entry in data set [2] is reported as “No binding”. In addition, in data set [3], the half-life at 1 μM was above 60 min and the “Met Stab % (60 mins) MLM” value turned out to be 75%.
For `O=C1/C(=N\Nc2nc3ccccc3s2)Cc2cccc(C(F)(F)F)c21` [7-106], in data set [1], the “Growth Specificity” value was “Specific to 42D cells” and the IC50 was around 2000 nM. Moreover, the BLI binding result in data set [2] is “Positive binding”. Further, in data set [3], the half-life at 1 μM is 46 min and the “Met Stab % (60 mins) MLM” value was determined as 38%.
For `CCN(CC)c1ccc2c(c1)C(=O)/C(=N\Nc1nc3ccccc3s1)C2` [7-109], the “Growth Specificity” value in data set [1] is listed as “Not specific”. Besides, the BLI binding result in data set [2] is “Positive binding”. Also, in data set [3], the half-life at 1 μM was determined as 13 min and the “Met Stab % (60 mins) MLM” value was determined as 3%.
Regarding `COC(=O)c1ccc2c(c1)C(=O)/C(=N\Nc1nc3ccccc3s1)C2` [7-110], the “Growth Specificity” value in data set [1] is “No activity”. The BLI binding result in data set [2] is reported as “No binding”. In addition, in data set [3], the half-life at 1 μM was 32 min and the “Met Stab % (60 mins) MLM” value is listed as 25%.
With `COC(=O)c1ccc2nc(N/N=C3/Cc4ccccc4C3=O)sc2c1` [7-111], the “Growth Specificity” value in data set [1] is recorded as “No activity”. Besides, in data set [2], the BLI binding entry is “No binding”. In data set [3], the half-life at 1 μM stood at 15 min and the “Met Stab % (60 mins) MLM” value is listed as 6%.
`O=C1/C(=N\Nc2nc3ccccc3s2)Cc2cc(N3CCCCC3)ccc21` [7-112]: the “Growth Specificity” value in data set [1] is “Not specific”. Also, the BLI binding result in data set [2] is on record as “No binding”. Besides, in data set [3], the half-life at 1 μM amounted to 32 min and the “Met Stab % (60 mins) MLM” value is on record as 26%.
For `O=C1/C(=N\Nc2nc3ccccc3s2)Cc2cc(N3CCC3)ccc21` [7-113], the “Growth Specificity” value in data set [1] is “precipitates”. In addition, in data set [2], the BLI binding result is reported as “No binding”. Further, in data set [3], the half-life at 1 μM was 15 min and the “Met Stab % (60 mins) MLM” value turned out to be 6%.
Turning to `CN1/C(=N/Nc2nc3ccccc3s2)C(=O)c2ccccc21` [7-114], in data set [1], the “Growth Specificity” value is given as “precipitates”. Further, the BLI binding result in data set [2] is on record as “No binding”. Besides, in data set [3], the half-life at 1 μM is 44 min and the “Met Stab % (60 mins) MLM” value is given as 40%.
Turning to `CN1C(=O)/C(=N/Nc2nc3ccccc3s2)c2ccccc21` [7-115], in data set [1], the “Growth Specificity” value is recorded as “Not specific”. Further, in data set [2], the BLI binding entry is “No binding”. Also, in data set [3], the half-life at 1 μM is 7 min and the “Met Stab % (60 mins) MLM” value is given as 2%.
